Reference: publication PMC6949113, “Preclinical evaluation of AT-527, a novel guanosine nucleotide prodrug with potent, pan-genotypic activity against hepatitis C virus” (PLoS ONE, 2020)
pIC50: −log10 of the molar value.

How the values were obtained:
[1] = target: T1, HCV NS5B polymerase (RdRp) (Hepatitis C virus genotype 1b, UniProt Q9WMX2); assay: HCV NS5B polymerase (RdRp) assay; type: biochemical
T1 construct: HCV NS5B polymerase (RdRp) assay
Method: RdRp activity was determined by the incorporation of radiolabeled ribonucleotide into synthesized RNA. […] HCV796 (Southern Research, Frederick, MD) was used as positive control for the assay.

human DNA polymerase β = target: T2, human DNA polymerase β (Homo sapiens, UniProt P06746); assay: Human DNA polymerase inhibition assay, β; type: biochemical
T2 construct: purchased CHIMERx (Madison, WI)
Method: The polymerases were purchased from CHIMERx (Madison, WI). Inhibition of DNA polymerase α activity was assayed in microtiter plates in 20 mM Tris-HCl, pH 8, 5 mM Mg acetate, 0.3 mg/mL BSA, 1mM DTT, 0.1 mM spermine, 0.05 mM dCTP, dTTP and dATP, 10 μCi ^32P-α-dGTP (800 Ci/mmol), 20 μg activated calf thymus DNA and the test compound at indicated concentrations. The DNA polymerase β and γ reaction mixture contained 50 mM Tris-HCl, pH 8.7, KCl (10 mM for β and 100 mM for γ), 10 mM MgCl2, 0.4 mg/mL BSA, 1mM DTT, 15% glycerol, 0.05 mM dCTP, dTTP and dATP, 10 μCi ^32P-α-dGTP (800 Ci/mmol), 20 μg activated calf thymus DNA and test compound at the indicated concentrations. For each assay, samples were run in triplicate, and positive controls were included. The enzyme reactions were allowed to proceed for 30 min at 37 °C followed by transfer onto glass-fiber filter plates and subsequent precipitation with 10% trichloroacetic acid (TCA). Plates were washed five times with 5% TCA, once with 95% ethanol and dried. The radioactive content of each filter was measured and used to determine the extent of inhibition of each polymerase.

Huh-7 cells = assay: Intracellular metabolism in Huh-7 replicon cells; type: in vitro ADME, human
Method: Huh-7 replicon cells. […] At each time point, the media was removed and the cells were washed twice with cold PBS, collected in 1 mL cold 60% MeOH, and extracted overnight at -20°C with internal standard added. […] Untreated cells were collected at each time point as a negative control.
S3 Protocol. LC-MS/MS analysis of AT-511 and metabolites in cultured cells. The supernatant extracts of each hepatocyte and Huh-7 cell incubation were separately analyzed by four different LC-MS/MS methods for quantitation of phosphoramidates, nucleosides, monophosphates, and triphosphates (methods 1, 2, 3 and 4, respectively), using synthetic reference standards of actually and potentially present compounds and using structurally related analogs as internal standards. Briefly, a Luna PFP (2), 5 µm, 100 x 4.6 mm column and an AB Sciex API-6500 mass spectrometer (ESI positive ion, MRM mode) were used for methods 1-3 and an XBridge Oligonucleotide, BEH C18, 2.5 µm, 50 x 2.1 mm column and a Thermo QE Plus mass spectrometer (electrospray, negative ion mode) were used for method 4. For methods 1 and 2, mobile phases A (10 mM ammonium acetate in water) and B (acetonitrile:methanol, 1:1, v/v) were used to elute samples (5 µL) at 1 mL/min with 15% B for 1.5 min followed by a linear gradient to 75% B over 1 min (method 1) or with 54% B for 1.3 min followed by a linear gradient to 90% B over 1.2 min. […]

[2] = Intracellular metabolism in rat hepatocytes; type: in vitro ADME, Sprague Dawley rat
Method: (§1) Hepatocytes. […] Cryopreserved male mouse (CD1), and fresh male Beagle dog and male cynomolgus monkey hepatocytes were obtained from BioreclamationIVT (Baltimore, MD) and were similarly plated with Matrigel in 6- or 24-well plates and maintained overnight in InVitroGRO™HI medium with Torpedo™ antibiotic (BioreclamationIVT). The protocol described above for measuring AT-511 and its metabolites in Huh-7 cells was repeated with the five different hepatocytes. Untreated cells were collected at 24 h, and the protein content of the cell lysates were determined using a bicinchoninic acid protein assay kit to assess the number of cells in each incubation. Separately, plated human hepatocytes were incubated for 6 h with 100 μM AT-511, followed by washout periods of 0, 2, 6, 18 and 30 h.
(§2) S3 Protocol. LC-MS/MS analysis of AT-511 and metabolites in cultured cells. The supernatant extracts of each hepatocyte and Huh-7 cell incubation were separately analyzed by four different LC-MS/MS methods for quantitation of phosphoramidates, nucleosides, monophosphates, and triphosphates (methods 1, 2, 3 and 4, respectively), using synthetic reference standards of actually and potentially present compounds and using structurally related analogs as internal standards. […]

[3] = AT-9010 half-life in human hepatocytes (washout); type: in vitro ADME; details: both sexes, plated cryopreserved human hepatocytes, 100 μM AT-511 for 6 h, washout 30 h
Method: as §1, §2

T1 sequence (Q9WMX2 2420-3010): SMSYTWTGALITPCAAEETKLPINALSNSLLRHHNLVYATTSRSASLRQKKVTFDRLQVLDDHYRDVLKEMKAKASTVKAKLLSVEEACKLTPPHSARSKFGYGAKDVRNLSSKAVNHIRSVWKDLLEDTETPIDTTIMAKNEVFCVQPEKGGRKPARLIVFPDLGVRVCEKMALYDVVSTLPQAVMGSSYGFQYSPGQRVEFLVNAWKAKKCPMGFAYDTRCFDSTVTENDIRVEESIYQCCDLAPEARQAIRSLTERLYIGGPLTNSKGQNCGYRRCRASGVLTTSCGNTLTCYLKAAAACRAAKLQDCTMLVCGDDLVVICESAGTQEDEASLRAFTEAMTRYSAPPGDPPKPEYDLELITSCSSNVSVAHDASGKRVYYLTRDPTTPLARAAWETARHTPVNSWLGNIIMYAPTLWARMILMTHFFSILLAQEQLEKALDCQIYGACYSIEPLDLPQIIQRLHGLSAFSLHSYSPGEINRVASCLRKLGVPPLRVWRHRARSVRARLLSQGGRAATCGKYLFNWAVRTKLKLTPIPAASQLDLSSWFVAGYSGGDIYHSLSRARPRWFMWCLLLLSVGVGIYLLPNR

SMILES: C[C@@]1(F)[C@H](O)[C@@H](COP(=O)(O)OP(=O)(O)OP(=O)(O)O)O[C@H]1n1cnc2c(=O)[nH]c(N)nc21 [AT-9010]
- pIC50 ([1]; as a competitive inhibitor of ATP, single assay): 4.39
- pIC50 ([1]; as an alternate substrate for GTP, mean of two assays): 6.82
- pIC50 (human DNA polymerase β): < 4.00
- AUC0-24, intracellular (Huh-7 cells; 10 μM AT-511): 5051 pmol*h/10^6 cells
- Cmax, intracellular (Huh-7 cells; 10 μM AT-511, 0-24 h): 420.3 ± 161.4 pmol/10^6 cells
- AUC0-24, intracellular ([2]; 10 μM AT-511): 3114 pmol*h/10^6 cells
- Cmax, intracellular ([2]; 10 μM AT-511, 0-24 h): 192.0 ± 67.3 pmol/10^6 cells
- half-life at 100 μM [3]: 10 h
